# Like-named read-outs stand apart in the source and are kept apart here.
# Legend:
# human EHMT2 913-1193 = molecular target: T1, human EHMT2 913-1193 (Homo sapiens, UniProt Q96KQ7); assay: biochemical
# T1 construct: recombinant purified human EHMT2 913-1193, Viva; purchased Viva
# T1 sequence (Q96KQ7 913-1193): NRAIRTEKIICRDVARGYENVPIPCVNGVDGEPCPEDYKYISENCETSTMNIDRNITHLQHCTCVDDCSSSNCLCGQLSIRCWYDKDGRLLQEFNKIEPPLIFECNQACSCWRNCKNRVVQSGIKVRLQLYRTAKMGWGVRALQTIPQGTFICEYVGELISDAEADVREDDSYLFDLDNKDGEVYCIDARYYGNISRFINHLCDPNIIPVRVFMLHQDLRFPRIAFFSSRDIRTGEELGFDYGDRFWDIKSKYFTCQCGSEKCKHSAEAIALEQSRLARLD
# From the text: Biotinylated histone peptides were synthesized by Biopeptide and HPLC-purified to >95% purity. Streptavidin Flashplates and seals were purchased from PerkinElmer and 384 Well V-bottom Polypropylene Plates were from Greiner. ^3H-labeled S-adenosylmethionine (^3H-SAM) was obtained from American Radiolabeled Chemicals with a specific activity of 80 Ci/mmol. Unlabeled SAM and S-adenosylhomocysteine (SAH) were obtained from American Radiolabeled Chemicals and Sigma-Aldrich respectively. […] 384-well Flashplates and 96-well filter binding plates were read on a TopCount microplate reader (PerkinElmer). Compound serial dilutions were performed on a Freedom EVO (Tecan) and spotted into assay plates using a Thermo Scientific Matrix PlateMate (Thermo Scientific). Reagent cocktails were added by Multidrop Combi (Thermo Scientific).
# General Procedure for EHMT2 Enzyme Assay on Histone Peptide Substrate. 10-point curves of test compounds were made on a Freedom EVO (Tecan) using serial 3-fold dilutions in DMSO, beginning at 2.5 mM (final top concentration of compound was 50 μM and the DMSO was 2%). A 1 μL aliquot of the inhibitor dilution series was spotted in a polypropylene 384-well V-bottom plate (Greiner) using a Thermo Scientific Matrix PlateMate (Thermo Scientific). […] Reactions were incubated for 60 minutes at room temperature and quenched with 10 μL per well of 400 μM unlabeled SAM, then transferred to a 384-well streptavidin Flashplate (PerkinElmer) and washed in a Biotek ELx-405 well washer with 0.1% Tween after 60 minutes. 384-well Flashplates were read on a TopCount microplate reader (PerkinElmer).
# EHMT1 = molecular target: T2, EHMT1 (Homo sapiens, UniProt Q9H9B1); assay: EHMT1 PEP; type: biochemical
# T2 sequence (Q9H9B1 1-1298): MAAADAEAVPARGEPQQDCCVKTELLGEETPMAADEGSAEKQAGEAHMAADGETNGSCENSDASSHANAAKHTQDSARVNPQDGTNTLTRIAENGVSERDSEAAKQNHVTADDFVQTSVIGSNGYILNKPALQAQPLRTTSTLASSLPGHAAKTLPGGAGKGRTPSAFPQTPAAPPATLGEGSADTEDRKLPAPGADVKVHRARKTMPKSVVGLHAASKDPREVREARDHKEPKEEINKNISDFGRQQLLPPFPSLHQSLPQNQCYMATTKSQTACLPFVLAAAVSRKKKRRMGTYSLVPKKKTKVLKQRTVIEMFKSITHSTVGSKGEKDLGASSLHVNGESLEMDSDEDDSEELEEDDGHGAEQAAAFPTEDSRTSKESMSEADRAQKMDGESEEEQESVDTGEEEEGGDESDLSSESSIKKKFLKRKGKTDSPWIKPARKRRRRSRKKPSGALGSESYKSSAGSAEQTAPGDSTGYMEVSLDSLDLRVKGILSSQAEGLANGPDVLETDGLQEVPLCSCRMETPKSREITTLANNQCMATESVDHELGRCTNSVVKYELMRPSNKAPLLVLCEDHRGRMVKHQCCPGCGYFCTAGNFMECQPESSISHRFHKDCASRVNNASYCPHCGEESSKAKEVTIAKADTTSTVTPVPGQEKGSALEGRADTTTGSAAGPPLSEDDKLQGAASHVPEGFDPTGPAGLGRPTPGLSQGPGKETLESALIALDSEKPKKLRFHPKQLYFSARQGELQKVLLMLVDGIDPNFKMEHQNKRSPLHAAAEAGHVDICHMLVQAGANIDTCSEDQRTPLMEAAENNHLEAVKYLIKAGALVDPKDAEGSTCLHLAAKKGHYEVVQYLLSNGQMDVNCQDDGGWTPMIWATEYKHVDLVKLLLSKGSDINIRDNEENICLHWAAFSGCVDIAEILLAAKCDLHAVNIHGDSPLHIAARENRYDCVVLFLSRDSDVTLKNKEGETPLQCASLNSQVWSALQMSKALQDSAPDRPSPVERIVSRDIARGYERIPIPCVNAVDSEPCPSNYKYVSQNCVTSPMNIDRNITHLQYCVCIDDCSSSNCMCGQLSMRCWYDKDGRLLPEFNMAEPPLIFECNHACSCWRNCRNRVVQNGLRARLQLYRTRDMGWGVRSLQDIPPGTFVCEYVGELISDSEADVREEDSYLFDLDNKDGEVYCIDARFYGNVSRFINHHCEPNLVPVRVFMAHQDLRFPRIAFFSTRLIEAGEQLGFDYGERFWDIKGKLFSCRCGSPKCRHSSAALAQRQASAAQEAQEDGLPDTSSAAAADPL
# [1] = recombinant human EHMT2 913-1193, histone H3 1-15 peptide, 3H-SAM, balanced conditions, read-out: EHMT2 PEP (IC50 μM)
IC50 (human EHMT2 913-1193; [1]),IC50 (EHMT1),IC50 (human EHMT2 913-1193),SMILES
< 0.1 µM,< 0.1 µM,,COc1cc2c(cc1OCCCN1CCC1)N=C(N)C21CCC1 [Compound 43]
0.1 to 1 µM,0.1 to 1 µM,,COc1cc2c(cc1OCCCN(C)C)N=C(N)C2(C)C [Compound 46]
1 to 10 µM,1 to 10 µM,,COc1cc2c(cc1OCCCN)N=C(N)C2(C)C [Compound 47]
0.1 to 1 µM,0.1 to 1 µM,,CNCCCOc1cc2c(cc1OC)C(C)(C)C(N)=N2 [Compound 48]
< 0.1 µM,< 0.1 µM,,COc1cc2c(cc1OCCCN1CC[C@@H](O)C1)N=C(N)C21CCC1 [Compound 49]
< 0.1 µM,< 0.1 µM,,COc1cc2c(cc1OCCCN1CC[C@H](O)C1)N=C(N)C21CCC1 [Compound 50]
1 to 10 µM,1 to 10 µM,,COc1cc2nc[nH]c2cc1OCCCN1CCCC1 [Compound 51]
< 0.1 µM,0.1 to 1 µM,,COc1cc2c(cc1OCCCN1CCCCC1)N=C(N)C21CCC1 [Compound 52]
< 0.1 µM,< 0.1 µM,,COc1cc2c(cc1OCCCN(C)C)N=C(N)C21CCC1 [Compound 53]
0.1 to 1 µM,0.1 to 1 µM,,COc1cc2c(cc1OCCCN1CCOCC1)N=C(N)C21CCC1 [Compound 54]
< 0.1 µM,< 0.1 µM,,COc1cc2c(cc1OCCCN1CCCC1)N=C(N)C21CCCCC1 [Compound 55]
,< 0.1 µM,< 0.1 µM,COc1cc2c(cc1OCCCN1CCCC1)N=C(N)C21CCCC1 [Compound 56]
1 to 10 µM,1 to 10 µM,,CNCCCOc1cc2c(cc1OC)C1(CCC1)C(N)=N2 [Compound 57]
1 to 10 µM,1 to 10 µM,,NC1=Nc2cc(OCCCN3CCCC3)c(OCc3ccccc3)cc2C12CCC2 [Compound 58]
< 0.1 µM,< 0.1 µM,,CCOc1cc2c(cc1OCCCN1CCCC1)N=C(N)C21CCC1 [Compound 59]
1 to 10 µM,1 to 10 µM,,NC1=Nc2cc(OCCCN3CCCC3)c(OCC3CCOCC3)cc2C12CCC2 [Compound 60]

IC50 (human EHMT2 913-1193; [1]),IC50 (EHMT1),IC50 (human EHMT2 913-1193),SMILES
> 10 µM,> 10 µM,,NC1=Nc2cc(OCCCN3CCCC3)c(OCC3CCCCC3)cc2C12CCC2 [Compound 61]
< 0.1 µM,< 0.1 µM,,COc1cc2c(cc1OCC(O)CN1CCCC1)N=C(N)C21CCC1 (centres unmarked) [Compound 62]
0.1 to 1 µM,0.1 to 1 µM,,COc1cc2c(cc1OCC(C)CN1CCCC1)N=C(N)C21CCC1 (centres unmarked) [Compound 65]
1 to 10 µM,1 to 10 µM,,COc1cc2c(cc1OCCCN1CCCC1)C1(CCC1)C(N)=N2 [Compound 66]
1 to 10 µM,> 10 µM,,COc1cc2c(cc1OCCCN1CCCC1)ncn2C(C)C [Compound 67]
1 to 10 µM,1 to 10 µM,,CC(C)Oc1cc2c(cc1OCCCN1CCCC1)N=C(N)C21CCC1 [Compound 68]
1 to 10 µM,1 to 10 µM,,COc1cc2c(cc1OCCCN)N=C(N)C21CCC1 [Compound 69]
< 0.1 µM,< 0.1 µM,,CNC1=Nc2cc(C#CCN3CC4CC4C3)c(OC)cc2C12CCC2 (centres unmarked) [Compound 87]
< 0.1 µM,< 0.1 µM,,CNC1=Nc2cc(C#CC(C)N3CC4CC4C3)c(OC)cc2C12CCC2 (centres unmarked) [Compound 89]
< 0.1 µM,< 0.1 µM,,CNC1=Nc2cc(C#C[C@H](C)N3CCCCC3)c(OC)cc2C12CCC2 [Compound 93]
0.1 to 1 µM,0.1 to 1 µM,,CNC1=Nc2cc(C#C[C@@H](C)N3CCCCC3)c(OC)cc2C12CCC2 [Compound 94]
0.1 to 1 µM,< 0.1 µM,,CNC1=Nc2cc(C#CCN3CCC(O)C3)c(OC)cc2C12CCC2 (centres unmarked) [Compound 95]
> 10 µM,1 to 10 µM,,NC1=Nc2cc(OCCCN3CCCC3)c(-c3ccccc3)cc2C12CCC2 [Compound 135]
> 10 µM,1 to 10 µM,,NC1=Nc2cc(OCCCN3CCCC3)c(-c3ccncc3)cc2C12CCC2 [Compound 136]
> 10 µM,> 10 µM,,NC1=Nc2cc(OCCCN3CCCC3)c(-c3cccnc3)cc2C12CCC2 [Compound 137]

# Source: patent publication US20220274961A1, “SUBSTITUTED FUSED BI- OR TRI- HETEROCYCLIC COMPOUNDS AS EHMT2 INHIBITORS” (priority 2016, published 2022)
